We go through one molecule from patent US20250360132A1, “METHODS OF ADMINISTERING MYOSIN INHIBITORS” (MYOKARDIA, INC., priority 2022, published 2025).

Data set [1] has as its system pregnant rats. The data set can be described thus: Embryo-fetal development study in rats. The data set is classed as in vivo, rat. The text has this: Plasma exposure (based on area under the concentration-time curve or AUC) at the no-effect dose for embryo-fetal development in rats is 0.3 times the exposure in humans at the MRHD.
A further data set concerns pregnant rabbits. The data set can be described thus: Embryo-fetal development study in rabbits. The data set is classed as in vivo, rabbit. As to the method:
Visceral findings consisted of malformations of the great vessels (dilatation of pulmonary trunk and/or aortic arch). Skeletal malformations consisted of higher incidences of fused sternebrae at ≥1.2 mg/kg/day. Plasma exposure (AUC) at the no-effect dose for embryo-fetal development in rabbits is 0.4 times the exposure in humans at the MRHD.

A short description of data set [2]: Pre/postnatal development study. The settings on record: female, rat, in vivo; oral, gestation Day 6 to lactation/post-partum Day 20; highest dosage level tested; read-out: no-observed-adverse-effect level (NOAEL). The class given is in vivo, rat. The method, then: (§1) In a pre/postnatal development study, mavacamten was administered orally to pregnant rats (0.3, to 1.5 mg/kg/day) from gestation Day 6 to lactation/post-partum Day 20.

Data set [3] relates to pregnant rats. Description: Pre/postnatal development study. The class given is in vivo, rat. Conditions: 0.3 to 1.5 mg/kg/day. As to the method:
as §1

A short description of data set [4]: Pharmacokinetics in hepatic impairment. The data set is classed as in vivo, human. The settings on record: mild (Child-Pugh A) or moderate (Child-Pugh B) hepatic impairment vs normal hepatic function. The text has this:
No dosage adjustment is required in patients with mild (Child-Pugh A) to moderate (Child-Pugh B) hepatic impairment. […] However, no additional dose adjustment is required in patients with mild to moderate hepatic impairment with the recommended dose titration algorithm and monitoring plan. The effect of severe (Child-Pugh C) hepatic impairment is unknown.
The effect of severe (Child-Pugh C) hepatic impairment is unknown.

In data set [5] the test system is patients with HCM and healthy subjects. The data set can be described thus: Human experience of overdose / high doses. The class given is in vivo.
The subject of a further data set is healthy volunteers. The data set can be described thus: Cardiac electrophysiology (QTc) in healthy volunteers. The data set is classed as in vivo, human. The text has this: The mechanism of the QT prolongation effect is not known.
In another data set the target is MATE1 (Homo sapiens, UniProt Q96FL8). Description: In vitro transporter inhibition. The class given is in vitro ADME.
MATE1, sequence (Q96FL8 whole entry): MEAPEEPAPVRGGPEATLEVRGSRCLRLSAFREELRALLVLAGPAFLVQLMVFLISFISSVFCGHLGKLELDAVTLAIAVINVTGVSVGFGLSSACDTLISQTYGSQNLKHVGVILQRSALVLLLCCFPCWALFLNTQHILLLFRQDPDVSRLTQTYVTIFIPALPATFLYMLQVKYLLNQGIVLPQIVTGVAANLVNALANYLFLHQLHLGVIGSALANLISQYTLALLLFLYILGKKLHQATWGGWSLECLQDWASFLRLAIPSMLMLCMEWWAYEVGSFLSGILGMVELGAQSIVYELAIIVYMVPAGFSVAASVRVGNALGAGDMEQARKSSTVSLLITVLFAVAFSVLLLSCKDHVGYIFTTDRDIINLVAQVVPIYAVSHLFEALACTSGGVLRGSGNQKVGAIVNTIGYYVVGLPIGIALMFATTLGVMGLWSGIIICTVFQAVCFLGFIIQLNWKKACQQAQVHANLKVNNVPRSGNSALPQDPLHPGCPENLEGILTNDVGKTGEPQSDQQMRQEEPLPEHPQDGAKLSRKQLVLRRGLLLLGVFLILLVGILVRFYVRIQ
The next data set addresses MATE2-K (Homo sapiens, UniProt Q86VL8). The data set can be described thus: In vitro transporter inhibition. The class given is in vitro ADME.
Another data set deals with CYP2C19. The data set can be described thus: Pharmacogenomics: CYP2C19 PMs vs NMs, single dose. The data set is classed as in vivo, human. The settings on record: single dose of 15 mg mavacamten. The text has this:
Mean half-life is prolonged in CYP2C19 PMs compared to NMs (23 days vs. 6 to 9 days, respectively).
Polymorphic CYP2C19 is the main enzyme involved in the metabolism of MAVACAMTEN. An individual carrying two normal function alleles is a NM (e.g., *1/*1). An individual carrying two no function alleles is a PM (e.g., *2/*2, *2/*3, *3/*3).

A further data set has as its system human lymphocyte. The data set can be described thus: Human in vitro lymphocyte electrogenicity assay. The class given is cell-based. The text has this: (§2) Mavacamten was not genotoxic in a bacterial reverse mutation test (Ames test), a human in vitro lymphocyte […] assay, or a rat in vivo micronucleus assay.
In the next data set the test system is rat. Description: Rat in vivo micronucleus assay.
Excerpt: as §2

In the next data set the test system is male or female rats. The data set can be described thus: Reproductive toxicity studies (mating and fertility). The class given is in vivo, rat.
The next data set deals with rats. Description: Animal toxicology, rats. The class given is in vivo. As to the method:
The safety of mavacamten has been evaluated in rats and dogs at multiple dose levels (0.06 to 10 mg/kg/day) orally. […] Plasma exposures (AUC) at the NOAEL in rats and dogs were 0.1 and 0.3 times, respectively, human exposure (AUC) at the MRHD.

Data set [6] deals with adults with symptomatic NYHA class II and III obstructive HCM. Conditions: Olivotto et al., 2020, The Lancet; cited from earlier work.

MATE2-K, sequence (Q86VL8 1-566 isoform Q86VL8-3): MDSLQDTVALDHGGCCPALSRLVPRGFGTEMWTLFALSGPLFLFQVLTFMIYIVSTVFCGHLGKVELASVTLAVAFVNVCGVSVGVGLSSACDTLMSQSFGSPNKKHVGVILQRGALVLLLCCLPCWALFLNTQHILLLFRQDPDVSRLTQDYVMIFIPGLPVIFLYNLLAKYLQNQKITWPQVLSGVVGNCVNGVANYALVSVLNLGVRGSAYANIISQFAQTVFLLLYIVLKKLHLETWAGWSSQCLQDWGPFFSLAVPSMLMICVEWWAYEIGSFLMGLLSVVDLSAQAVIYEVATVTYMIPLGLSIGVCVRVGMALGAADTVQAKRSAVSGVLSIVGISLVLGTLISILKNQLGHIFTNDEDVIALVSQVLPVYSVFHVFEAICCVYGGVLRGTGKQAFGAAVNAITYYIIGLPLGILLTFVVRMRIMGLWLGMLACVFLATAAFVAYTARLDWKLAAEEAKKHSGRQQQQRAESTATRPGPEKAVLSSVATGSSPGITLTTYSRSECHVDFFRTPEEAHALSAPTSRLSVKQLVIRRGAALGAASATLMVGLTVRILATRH

Regarding `CC(C)n1c(=O)cc(N[C@@H](C)c2ccccc2)[nH]c1=O` [mavacamten, (S)-3-Isopropyl-6-((1-phenylethyl)amino)pyrimidine-2,4(1H,3H)-dione], the “Embryo-fetal findings in the high dose group” value with pregnant rats [1] (oral, 1.5 mg/kg/day, period of organogenesis) is “increases in post-implantation loss, decreases in mean fetal body weight, reductions in fetal ossification of bones, and fetal malformations (visceral and skeletal)”. For the same molecule, the “Plasma exposure (AUC) at the no-effect dose for embryo-fetal development vs humans at the MRHD” value was found to be 0.3 times with pregnant rats [1] (rats) and 0.4 times with pregnant rabbits (rabbits). In addition, the “Embryo-fetal findings (risk summary)” value is “decreases in mean fetal body weight, reductions in fetal ossification of bones, and increases in post-implantation loss” in the data set on pregnant rats [1] (rats, dose exposures similar to that at the MRHD); “increases in visceral and skeletal malformations” in the data set on pregnant rabbits (both rabbits and rats, dose exposures similar to that at the MRHD). In addition, the “Doses at which fetal malformations (visceral and skeletal) were increased” value with pregnant rabbits (oral, period of organogenesis) was ≥ 1.2 mg/kg/day. For the same molecule, the no-observed-adverse-effect level (NOAEL) in data set [2] was 1.5 mg/kg/day. The “Effects in dams or offspring” value with pregnant rats [3] is recorded as “No adverse effects were observed in the dams or offspring”. In addition, the “Increase in mavacamten exposure (AUC)” value in [4] is “up to 220%”. In data set [5] (healthy subjects, 25 mg dose level, up to 25 days), the “participants experiencing 20% or greater reductions in LVEF” value was 3 of 8. Besides, the “Outcome of accidental ingestion” value in data set [5] (infant, three 15 mg capsules) was “infant death”. In addition, the “Events after single dose of 144 mg” value in data set [5] (one subject with HCM, subject recovered) was “serious adverse events including vasovagal reaction, hypotension, and asystole”. Moreover, the “QTc interval effect, multiple doses” value in the data set with healthy volunteers (doses up to 25 mg once daily) is “concentration-dependent increase in the QTc interval”. Moreover, in the data set on healthy volunteers (similar exposures), the “QTc interval effect, single-dose studies” value is on record as “No acute QTc changes”. Also, at MATE1, the “Inhibition of MATE1” value was “does not inhibit”. The “Inhibition of MATE2-K” value at MATE2-K is recorded as “does not inhibit”. Also, the “Increase in AUCinf in CYP2C19 PMs compared to NMs” value in the data set with CYP2C19 is listed as 241%. In the data set on CYP2C19, the “Increase in Cmax in CYP2C19 PMs compared to NMs” value is 47%. The “Genotoxicity, human in vitro lymphocyte electrogenicity assay” value in the data set with human lymphocyte was “not genotoxic”. The “Genotoxicity, rat in vivo micronucleus assay” value in the data set on rat was “not genotoxic”. Also, the “Effects on viability and fertility of offspring” value with male or female rats (dams dosed up to 1.5 mg/kg/day) is given as “no evidence of effects”. Further, the “Plasma exposure (AUC) at the highest dose tested” value in the data set with male or female rats (vs humans at the MRHD) is “the same as in humans at the MRHD”. In addition, the “Plasma exposure (AUC) at the NOAEL vs human exposure at the MRHD” value in the data set on rats was 0.1 times. Further, the “Clinical benefit in EXPLORER-HCM” value in [6] was “effective in reducing LVOT gradients and improving symptoms, exercise performance and health status”.

The NOAEL is the highest dose or exposure tested at which no adverse effect was seen.
